Measurements: PMC8535176, “Efficacy of epetraborole against Mycobacterium abscessus is increased with norvaline” (PLoS Pathogens, 2021)
≈ marks a conversion by molar mass, not a printed value.

Assays:
E. coli = assay: microbe, parasite or virus in culture; parameters: Whole-cell growth inhibition, dose-response MIC (MIC90) by resazurin microtiter assay (REMA), fluorescence read-out; settings: Escherichia coli, read-out: MIC (µg/mL) / EPT
M. abscessus = assay: microbe, parasite or virus in culture; parameters: Whole-cell growth inhibition, dose-response MIC (MIC90) by resazurin microtiter assay (REMA), fluorescence read-out; settings: Mycobacteroides abscessus, read-out: MIC (µg/mL) / EPT
M. tuberculosis H37Rv = tested on: T1, M. tuberculosis H37Rv; assay: microbe, parasite or virus in culture; parameters: Whole-cell growth inhibition, dose-response MIC (MIC90) by resazurin microtiter assay (REMA), fluorescence read-out; settings: Mycobacterium tuberculosis, H37RV, read-out: MIC (µg/mL) / EPT
T1 construct: H37Rv

P. aeruginosa = assay: microbe, parasite or virus in culture; parameters: Whole-cell growth inhibition, dose-response MIC (MIC90) by resazurin microtiter assay (REMA), fluorescence read-out; settings: Pseudomonas aeruginosa, read-out: MIC (µg/mL) / EPT
B. cereus = assay: microbe, parasite or virus in culture; parameters: Whole-cell growth inhibition, dose-response MIC (MIC90) by resazurin microtiter assay (REMA), fluorescence read-out; settings: Bacillus cereus, read-out: MIC (µg/mL) / EPT
M. avium hominissuis = assay: microbe, parasite or virus in culture; parameters: Whole-cell growth inhibition, dose-response MIC (MIC90) by resazurin microtiter assay (REMA), fluorescence read-out; settings: Mycobacterium avium, read-out: MIC (µg/mL) / EPT
M. tuberculosis Erdman = tested on: T2, M. tuberculosis Erdman; assay: microbe, parasite or virus in culture; parameters: Whole-cell growth inhibition, dose-response MIC (MIC90) by resazurin microtiter assay (REMA), fluorescence read-out; settings: Mycobacterium tuberculosis, ERDMAN, read-out: MIC (µg/mL) / EPT
T2 construct: Erdman

M. avium intracellulaire = assay: microbe, parasite or virus in culture; parameters: Whole-cell growth inhibition, dose-response MIC (MIC90) by resazurin microtiter assay (REMA), fluorescence read-out; settings: Mycobacterium avium, read-out: MIC (µg/mL) / EPT
C. glutamicum = assay: microbe, parasite or virus in culture; parameters: Whole-cell growth inhibition, dose-response MIC (MIC90) by resazurin microtiter assay (REMA), fluorescence read-out; settings: Corynebacterium glutamicum, read-out: MIC (µg/mL) / EPT
[1] = tested on: T3, Mycobacteroides abscessus subsp. abscessus MT16_1065; assay: microbe, parasite or virus in culture; parameters: species or system M. abscessus; Resazurin microtiter assay (REMA), fluorescence; MIC at 90% growth inhibition from Gompertz fit; settings: 48 h, smooth morphotype, read-out: MIC EPT
T3 construct: MT16_1065
Description: (§1) MIC values were determined using the resazurin microtiter assay (REMA). Cultures were grown to log phase (OD600 of 0.4–0.8) and diluted to OD600 of 0.005. Drugs were prepared in two-fold serial dilutions in 96-well plates with 90 μL of bacteria per well to a final volume of 100 μL. Plates were incubated at 37°C until drug-free wells were turbid (2 days for M. abscessus). Ten μL of resazurin (0.025% wt/vol) was added to each well. Once the drug-free wells turned pink (one doubling time), the fluorescence (ex/em 560nm/590nm) was measured using an Infinite F200 Tecan plate reader. Fluorescence intensities were converted to % viable cells relative to drug-free conditions and fit to the Gompertz equation using GraphPad Prism version 9. MIC values at 90% growth inhibition were determined from the nonlinear regression Gompertz equation. Next, we tested the in vitro activity of EPT against a panel of M. abscessus clinical isolates belonging to the three subspecies of the M. abscessus complex (M. abscessus, M. massiliense, and M. bolletii) with smooth and rough colony morphologies and with different drug susceptibility profiles to various antibiotics. There was no loss in activity against clinical isolates (range of 0.014–0.046 μg/mL) nor different morphologies (S2 Table). To determine the spectrum of activity of EPT, we curated a panel of various mycobacteria and representative gram-positive and gram-negative bacteria. […] Mycobacteria strains were grown in rolling [compound left out] culture at 37°C in Middlebrook 7H9 (Difco) supplemented with 10% albumin dextrose catalase (ADC), 0.2% glycerol, and 0.05% Tween 80 (7H9 complete) or on 7H10 agar plates supplemented with 10% oleic acid ADC and 0.5% glycerol at 37°C. When mentioned, the carbon source was modified from glycerol to acetate or the detergent Tween 80 was removed from the media. Bacillus cereus (clinical isolate), Corynebacterium glutamicum (ATCC 13032), Escherichia coli, and Pseudomonas aeruginosa PAO1 were grown in LB broth. HepG2 cells (ATCC HB-8065) were grown in Dulbecco’s modified Eagle’s medium (DMEM) with phenol red (from Gibco) supplemented with 10% fetal bovine serum at 37°C with 5% CO2.

[2] = tested on: T4, Mycobacteroides abscessus subsp. abscessus MT16_6490; assay: microbe, parasite or virus in culture; parameters: species or system M. abscessus; Resazurin microtiter assay (REMA), fluorescence; MIC at 90% growth inhibition from Gompertz fit; settings: 48 h, smooth morphotype, read-out: MIC EPT
T4 construct: MT16_6490
Description: as §1

[3] = tested on: T5, Mycobacteroides abscessus subsp. bolletii AV; assay: microbe, parasite or virus in culture; parameters: species or system M. abscessus; Resazurin microtiter assay (REMA), fluorescence; MIC at 90% growth inhibition from Gompertz fit; settings: 48 h, smooth morphotype, read-out: MIC EPT
T5 construct: AV
Description: as §1

[4] = tested on: T6, Mycobacteroides abscessus subsp. massiliense MT15_1749; assay: microbe, parasite or virus in culture; parameters: species or system M. abscessus; Resazurin microtiter assay (REMA), fluorescence; MIC at 90% growth inhibition from Gompertz fit; settings: 48 h, rough morphotype, read-out: MIC EPT
T6 construct: MT15_1749
Description: as §1

[5] = tested on: T7, Mycobacteroides abscessus subsp. massiliense MT15_1748; assay: microbe, parasite or virus in culture; parameters: species or system M. abscessus; Resazurin microtiter assay (REMA), fluorescence; MIC at 90% growth inhibition from Gompertz fit; settings: 48 h, rough morphotype, read-out: MIC EPT
T7 construct: MT15_1748
Description: as §1

[6] = tested on: T8, Mycobacteroides abscessus subsp. bolletii Paris 167; assay: microbe, parasite or virus in culture; parameters: species or system M. abscessus; Resazurin microtiter assay (REMA), fluorescence; MIC at 90% growth inhibition from Gompertz fit; settings: 48 h, rough morphotype, read-out: MIC EPT
T8 construct: Paris 167
Description: as §1

[7] = tested on: T9, Mycobacteroides abscessus subsp. abscessus ATCC 19977; assay: microbe, parasite or virus in culture; parameters: species or system M. abscessus; Resazurin microtiter assay (REMA), fluorescence; MIC at 90% growth inhibition from Gompertz fit; settings: ATCC19977, 48 h, rough morphotype, read-out: MIC EPT
T9 construct: ATCC 19977
Description: as §1

[8] = molecular target: T10, M. abscessus LeuRS editing domain (LeuRSMabs; pMabsED) (Mycobacteroides abscessus, UniProt B1MMK6); assay: isothermal titration calorimetry; type: binding
T10 construct: gene leuS; editing domain, residues 303-499 (text on crystals prints 303-498); N-terminal His tag with TEV site, removed; synthetic codon-optimised gene, pET24a(+), E. coli BL21(DE3)
T10 sequence (B1MMK6 303-499): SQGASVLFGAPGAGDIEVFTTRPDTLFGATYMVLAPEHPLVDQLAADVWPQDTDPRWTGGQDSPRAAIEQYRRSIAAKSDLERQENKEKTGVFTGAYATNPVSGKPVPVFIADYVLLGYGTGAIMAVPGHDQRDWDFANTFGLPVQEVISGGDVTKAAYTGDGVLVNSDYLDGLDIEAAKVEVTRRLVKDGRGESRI
Source text: isothermal titration calorimetry on M. abscessus LeuRS editing domain (LeuRSMabs; pMabsED)

[9] = molecular target: T11, M. tuberculosis LeuRS editing domain (LeuRSMtb; pMtbED) (Mycobacterium tuberculosis, UniProt P9WFV1); assay: isothermal titration calorimetry; type: binding
T11 construct: gene leuS
T11 sequence (P9WFV1 311-512 limits assumed): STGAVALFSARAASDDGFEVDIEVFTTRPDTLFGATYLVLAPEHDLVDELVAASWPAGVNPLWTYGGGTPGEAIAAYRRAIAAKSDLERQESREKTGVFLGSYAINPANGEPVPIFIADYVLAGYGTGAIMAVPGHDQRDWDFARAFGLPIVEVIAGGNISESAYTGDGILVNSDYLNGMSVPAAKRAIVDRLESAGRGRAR
Source text: isothermal titration calorimetry on M. tuberculosis LeuRS editing domain (LeuRSMtb; pMtbED)

In the case of `NC[C@H]1OB(O)c2c(OCCCO)cccc21` [epetraborole], the MIC (E. coli) is reported as 5.7 µg/mL (≈ 24 µM), the MIC (M. abscessus) is reported as 0.063 µg/mL (≈ 0.266 µM) and the MIC (M. tuberculosis H37Rv) is reported as 0.46 µg/mL (≈ 1.94 µM). For the same compound, the MIC (P. aeruginosa) was > 2.7 µg/mL, the MIC (B. cereus) was > 2.7 µg/mL and the MIC (M. avium hominissuis) was 2.7 µg/mL (≈ 11.4 µM). It also gave an MIC (M. tuberculosis Erdman) of 0.19 µg/mL (≈ 0.801 µM), an MIC (M. avium intracellulaire) of 2.7 µg/mL (≈ 11.4 µM) and an MIC (C. glutamicum) of 2 µg/mL (≈ 8.44 µM). It also gave an MIC [1] of 0.041 µg/mL (≈ 0.173 µM), an MIC [2] of 0.03 µg/mL (≈ 0.127 µM) and an MIC [3] of 0.046 µg/mL (≈ 0.194 µM). It also gave an MIC [4] of 0.014 µg/mL (≈ 0.0591 µM), an MIC [5] of 0.022 µg/mL (≈ 0.0928 µM) and an MIC [6] of 0.027 µg/mL (≈ 0.114 µM). The MIC [7] was 0.11 µg/mL (≈ 0.464 µM), the Kd [8] was 16 ± 4 µM and the Kd [9] was 10 ± 4 µM.
